Data as given in ChEMBL document CHEMBL2010790, “Growth inhibition and mechanism of action of p-dodecylaminophenol against refractory human pancreatic cancer and cholangiocarcinoma” (Bioorg Med Chem, 2012).
The source made the active and inactive calls. The rule behind the calls is not given here.

Assays:
MIA PaCa-2 [1] = experiment: Growth inhibition of human MIAPaCa2 cells at 10 uM after 72 hrs by MTT assay relative to control; format: functional; details: for inhibition of growth at 10 µM: MIA PaCa-2, 72 h, read-out: GI
[2] = Growth inhibition of human HuCCT1 cells at 4 uM after 72 hrs by MTT assay relative to control; format: functional; details: HuCCT-1, 72 h, read-out: GI
HuCCT-1 [3] = experiment: (§1) Cytotoxicity against human HuCCT1 cells after 72 hrs by MTT assay; format: functional, cell-based
MIA PaCa-2 [4] = experiment: Growth inhibition of human MIAPaCa2 cells at 4 uM after 72 hrs by MTT assay relative to control; format: functional; details: MIA PaCa-2, 72 h, read-out: GI
HuCCT-1 [5] = experiment: (§2) Growth inhibition of human HuCCT1 cells at 10 uM after 72 hrs by MTT assay relative to control; format: functional
MIA PaCa-2 [6] = experiment: Cytotoxicity against human MIAPaCa2 cells after 72 hrs by MTT assay; format: functional, cell-based; details: MIA PaCa-2, 72 h
[7] = as §1; format: functional, cell-based; details: HuCCT-1, 72 h
MIA PaCa-2 [8] = experiment: Downregulation of K-ras in human MIAPaCa2 cells at 10 uM after 72 hrs by agarose gel electrophoresis; format: functional, cell-based
MIA PaCa-2 [9] = experiment: Downregulation of K-ras in human MIAPaCa2 cells at 7 uM after 72 hrs by agarose gel electrophoresis; format: functional, cell-based
[10] = Downregulation of K-ras in human HuCCT1 cells at 2 uM after 72 hrs by agarose gel electrophoresis; format: functional, cell-based; details: HuCCT-1
[11] = Downregulation of K-ras in human HuCCT1 cells at 6 uM after 72 hrs by agarose gel electrophoresis; format: functional, cell-based; details: HuCCT-1
[12] = Downregulation of H-ras in human HuCCT1 cells at 6 uM after 72 hrs by agarose gel electrophoresis; format: functional, cell-based; details: HuCCT-1
MIA PaCa-2 [13] = experiment: Inhibition of ERK phosphorylation in human MIAPaCa2 cells assessed as reduction in phospho-ERK levels at 7 uM after 48 hrs by immunoblotting; format: cell-based
MIA PaCa-2 [14] = experiment: Inhibition of Akt phosphorylation in human MIAPaCa2 cells assessed as effect on […] at 7 uM after 48 hrs by immunoblotting; format: cell-based
HuCCT1 [15] = experiment: Inhibition of ERK phosphorylation in human HuCCT1 cells assessed as reduction in phospho-ERK levels at 6 uM after 48 hrs by immunoblotting; format: cell-based
HuCCT1 [16] = experiment: Inhibition of Akt phosphorylation in human HuCCT1 cells assessed as reduction in phospho-Akt levels at 6 uM after 48 hrs by immunoblotting; format: cell-based
MIA PaCa-2 [17] = experiment: Induction of apoptosis in human MIAPaCa2 cells after 72 hrs; format: functional, cell-based
HuCCT-1 [18] = experiment: Induction of apoptosis in human HuCCT1 cells after 72 hrs; format: functional, cell-based
[19] = as §2; format: functional; details: HuCCT-1, 72 h, read-out: GI
MIA PaCa-2 [20] = experiment: Growth inhibition of human MIAPaCa2 cells at 1 uM after 72 hrs by MTT assay; format: functional; details: MIA PaCa-2, 72 h, read-out: GI
MIA PaCa-2 [21] = experiment: Cellular uptake in human MIAPaCa2 cells at 10 uM up to 30 mins by HPLC analysis; format: ADME, cell-based; details: mia paca-2, 0.5 h
[22] = Cellular uptake in human HuCCT1 cells at 10 uM up to 30 mins by HPLC analysis; format: ADME, cell-based; details: hucct-1, 0.5 h
[23] = Cellular uptake in human HuCCT1 cells at 10 uM measured after 30 mins up to 60 mins; format: ADME, cell-based; details: hucct-1, 10 µM
Nucleic Acid = experiment: Ratio of drug level in human MIAPaCa2 cells to human HuCCT1 cells at 30 mins; format: ADME, cell-based; details: mia paca-2, 0.5 h
[24] = Downregulation of H-ras in human HuCCT1 cells at 2 uM after 72 hrs by agarose gel electrophoresis; format: functional, cell-based; details: HuCCT-1
[25] = Downregulation of N-ras in human HuCCT1 cells at 2 uM after 72 hrs by agarose gel electrophoresis; format: functional, cell-based; details: HuCCT-1
MIA PaCa-2 [26] = experiment: Inhibition of ERK phosphorylation in human MIAPaCa2 cells assessed as reduction in phospho-ERK levels at 10 uM after 48 hrs by immunoblotting; format: cell-based
HuCCT1 [27] = experiment: Inhibition of ERK phosphorylation in human HuCCT1 cells assessed as reduction in phospho-ERK levels at 2 uM after 48 hrs by immunoblotting; format: cell-based
HuCCT1 [28] = experiment: Inhibition of Akt phosphorylation in human HuCCT1 cells assessed as reduction in phospho-Akt levels at 2 uM after 48 hrs by immunoblotting; format: cell-based
MIA PaCa-2 [29] = experiment: Inhibition of Akt phosphorylation in human MIAPaCa2 cells assessed as effect on […] at 10 uM after 48 hrs by immunoblotting; format: cell-based
[30] = Growth inhibition of human HuCCT1 cells at 1 uM after 72 hrs by MTT assay relative to control; format: functional; details: HuCCT-1, 72 h, read-out: GI

SMILES	inhibition of growth at 10 µM (MIA PaCa-2 [1]) [%]	inhibition of growth at 4 µM [2] [%]	growth inhibition (GI) (HuCCT-1 [3])	inhibition of growth at 4 µM (MIA PaCa-2 [4]) [%]	IC50 (MIA PaCa-2 [6]) [µM]	IC50 [7] [µM]	Activity (MIA PaCa-2 [8])	Activity (MIA PaCa-2 [9])	Activity [10]	Activity [11]	Activity (MIA PaCa-2 [17])	Activity (HuCCT-1 [18])	inhibition of growth at 10 µM [19] [%]	other results
CCCCCCCCCCNc1ccc(O)cc1	55	82	Dose-dependent effect	–	–	–	–	–	–	–	–	–	–	–
CCCCCCCCCCCC(=O)Nc1ccc(O)cc1	0	23	Dose-dependent effect	–	–	–	–	–	–	–	–	–	–	–
CCCCCCCCCC(=O)Nc1ccc(O)cc1	0	23	Dose-dependent effect	–	–	–	–	–	–	–	–	–	–	–
CC1=C(/C=C/C(C)=C/C=C/C(C)=C/C(=O)Nc2ccc(O)cc2)C(C)(C)CCC1 [FENRETINIDE]	–	17	Dose-dependent effect	8	7	6	Active	Active	Active	Active	inactive	inactive	–	growth inhibition (GI) (MIA PaCa-2 [1]): Active; growth inhibition (GI) (HuCCT-1 [5]): Active; Activity [12]: Active; inhibition (MIA PaCa-2 [13]): inactive; inhibition (MIA PaCa-2 [14]): 30%; inhibition (HuCCT1 [15]): inactive; inhibition (HuCCT1 [16]): inactive
CC1=C(/C=C/C(C)=C/C=C/C(C)=C/C(=O)O)C(C)(C)CCC1 [TRETINOIN]	18	17	–	15	–	–	–	–	–	–	–	–	28	–
CCCCCCCCCCCCNc1ccc(O)cc1	50	82	Dose-dependent effect	45	10	2	Active	Active	Active	Active	inactive	inactive	84	inhibition of growth at 1 µM (MIA PaCa-2 [20]): 20%; Drug uptake (MIA PaCa-2 [21]): Active; Drug uptake [22]: Active; Drug uptake [23]: Not Active; Ratio (Nucleic Acid): 1.8; Activity [24]: Active; Activity [25]: Active; inhibition (MIA PaCa-2 [26]): 50%; inhibition (HuCCT1 [27]): 21%; inhibition (HuCCT1 [28]): 20%; inhibition (MIA PaCa-2 [29]): inactive; inhibition of growth at 1 µM [30]: 35%
